# Columns and labels:
# [1] = test system: IL-1β; experiment: In vitro inhibition of production of IL-1β in PMA-differentiated THP-1 cells (LPS + ATP, ELISA); type: cell-based, Human; details: THP-1 derived macrophages
# Description: The procedures detailed here can be utilized for testing all compounds of the disclosure.
# Human monocytic THP-1 cells were treated with phorbol 12-myristate 13 acetate (PMA) (100 nM) overnight to differentiate monocytic cells into macrophages. Then, after 24 hours of rest, the differentiated cells were incubated with test compounds for 12 hours at concentrations 0.01, 0.1, 1, 10, 30, and 50 μM. Cells were then washed once with PBS and primed with E. coli LPS (0.1 μg/ml) for 4 h followed by stimulation with ATP (5 μM) for an additional 30 min. The cell culture supernatants were then collected and OD values for IL-1β levels were measured by ELISA. The standard curve (OD VS concentration) for IL-1β was also plotted and used to determine the IL-1β concentration for the OD values. The percentage of inhibition of IL-1β was calculated using the formula: […]
# The percentage IL-1β inhibition at different compound concentrations were plotted in a sigmoid curve and IC50 values were interpolated in Graphpad Prism. Cell death was evaluated by propidium iodide staining and OD was measured at 490 nm. Cell viability was estimated with respect to DMSO control.
# [2] = Solubility analysis (kinetic method, PBS pH 7.4); type: physicochemical; details: phosphate buffered saline, aqueous buffer, kinetic from dmso stock, phosphate buffer saline (pH-7.4)
# Description: Seven level calibration standards (i.e., 1, 5, 10, 50, 100, 200 and 300 μM) of the test compound were prepared from 20 mM primary stock solution in DMSO. An aliquot of 198 μL of PBS (pH-7.4) was dispensed into duplicate wells of a multiscreen solubility filter plate. Subsequently, 2 μL of test compound solution from 20 mM primary stock solution was added to give a final concentration of 200 μM, the plate was covered and shaken at 150 rotations per minute for 90 minutes. At the end of 90 minutes, samples were filtered using MultiScreen HTS vacuum Manifold assembly and the filtrates were collected into the acceptor plate. An aliquot of 150 μL of filtrate from the above 96-well acceptor plate were transferred into HPLC vials and analyzed by HPLC-PDA. Solubility was determined by comparing the absorbance of test/reference compound against the respective DMSO calibration curve.
# [3] = in vitro; details: for % rem @ 5 min / % rem @ 15 min / % rem @ 30 min / % rem @ 45 min: 1 µM; for % rem @ 5 min / % rem @ 15 min / % rem @ 30 min / % rem @ 45 min / half-life at 1 µM / microsomal CLint at 1 μM: pH 7.4; for half-life at 1 µM / microsomal CLint at 1 μM: microsomes
# Description: All the tubes were pre-incubated at 37 t 1° C. for 5 min in a shaking water bath. Tubes of NADPH solution (10 mM) were similarly pre-incubated in similar conditions. After pre-incubation, 20 μL NADPH solution (10 mM) was added to the T0, T5, T15, T30, and T45 tubes, and 20 μL of buffer was added to the TControl tube which makes the final concentration to 1 μM respectively. T0 was immediately quenched with 200 μL of quenching solution containing warfarin as internal standard (IS). Similarly, at the end of the incubation period (5, 15, 30, and 45 minutes) of respective tubes, 200 μL of quenching solution containing warfarin as internal standard (IS) was added to each tube to stop the reaction. Resulting samples were centrifuged at 3220 g (relative centrifugal force) for 20 min. Supernatant (200 μL) from each reaction tube was taken for LC-MS/MS analysis.
# [4] = target: T1, CYP 1A2 (Homo sapiens, UniProt P05177); experiment: Metabolic stability in human liver microsomes with CYP 1A2 inhibitor Furafylline; type: in vitro ADME; details: 1 μM + Furafylline (20 μM)
# T1 construct: The experiment was conducted in human liver microsomes; from tissue; host or cells: human liver microsomes
# T1 sequence (P05177 1-516): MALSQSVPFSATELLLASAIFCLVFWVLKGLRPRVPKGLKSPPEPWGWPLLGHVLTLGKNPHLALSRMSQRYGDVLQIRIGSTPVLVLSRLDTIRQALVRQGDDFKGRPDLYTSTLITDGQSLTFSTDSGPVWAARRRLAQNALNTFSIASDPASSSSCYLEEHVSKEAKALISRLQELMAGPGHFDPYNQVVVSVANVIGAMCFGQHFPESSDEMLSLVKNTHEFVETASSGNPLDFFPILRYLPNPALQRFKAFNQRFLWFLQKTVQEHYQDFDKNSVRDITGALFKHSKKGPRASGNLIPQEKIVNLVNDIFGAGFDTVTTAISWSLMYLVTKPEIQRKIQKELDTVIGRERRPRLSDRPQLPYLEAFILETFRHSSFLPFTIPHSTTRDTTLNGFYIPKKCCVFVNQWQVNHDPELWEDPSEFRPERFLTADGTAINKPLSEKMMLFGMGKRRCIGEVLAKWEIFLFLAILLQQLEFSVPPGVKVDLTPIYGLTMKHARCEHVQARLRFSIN
# [5] = test system: MDR1 (P-gp); experiment: in vitro; set-up: Papp A→B at 60 min / Papp B→A at 60 min / efflux ratio at 60 min / recovery at 60 min / % recovery Apical concentration-Basal concentration / % recovery Basal concentration-Apical concentration: dose or concentration left out as unconfirmed; details: dog
# Description: (§1) Digoxin is used as reference and lucifer yellow is used as the integrity marker. […] Papp, efflux ratio and percent recovery are calculated.
# [6] = test system: MDR1; experiment: in vitro; set-up: Papp A→B at 60 min / Papp B→A at 60 min / efflux ratio at 60 min / recovery at 60 min / % recovery Apical concentration-Basal concentration / % recovery Basal concentration-Apical concentration: dose or concentration left out as unconfirmed; details: dog, MDCK-MDR1
# Description: as §1
# [7] = target: CYP 3A4 (Homo sapiens, UniProt P08684); experiment: Metabolic stability in human liver microsomes with CYP 3A4 inhibitor Ketoconazole; details: 1 μM + Ketoconazole (20 μM)
# Chain of CYP 3A4 (P08684 whole entry): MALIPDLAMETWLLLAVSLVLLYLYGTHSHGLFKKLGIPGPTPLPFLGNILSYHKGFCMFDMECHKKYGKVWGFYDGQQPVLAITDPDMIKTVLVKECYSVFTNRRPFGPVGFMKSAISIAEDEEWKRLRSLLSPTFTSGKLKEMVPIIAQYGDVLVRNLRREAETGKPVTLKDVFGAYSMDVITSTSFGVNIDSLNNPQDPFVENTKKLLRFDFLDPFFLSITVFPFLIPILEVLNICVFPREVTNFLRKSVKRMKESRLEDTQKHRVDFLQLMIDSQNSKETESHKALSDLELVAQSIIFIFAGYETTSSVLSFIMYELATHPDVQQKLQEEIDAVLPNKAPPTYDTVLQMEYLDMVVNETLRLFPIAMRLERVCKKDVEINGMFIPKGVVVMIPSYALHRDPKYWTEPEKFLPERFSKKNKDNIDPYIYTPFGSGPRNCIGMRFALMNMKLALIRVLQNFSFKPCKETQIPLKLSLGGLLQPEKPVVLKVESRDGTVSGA
compound,measurement,setting,value
"O=C1Nc2ccccc2N(C(=O)CCl)c2ccc(F)cc21 [Compound 6, 5-(2-chloroacetyl)-2-fluoro-5,10-dihydro-11H-dibenzo[b,e][1,4]diazepin-11-one]","IL-1β levels under in vitro conditions (FIG. 3, percentage of cytokine inhibition against concentration)",[1],dose dependent decrease in IL-1β levels
same,solubility at 90 min,[2],> 200 µM
same,stability / metabolism by liver microsomes (in words),[3],medium to highly stability
same,% rem @ 5 min,[3]; human,93.5%
same,% rem @ 15 min,[3]; human,92.9%
same,% rem @ 30 min,[3]; human,91.3%
same,% rem @ 45 min,[3]; human,67.8%
same,half-life at 1 µM,[3]; human,1.6 h
same,microsomal CLint at 1 μM,[3]; human,14.4 µL/min/mg
same,% rem @ 5 min,[3]; mouse,~100%
same,% rem @ 15 min,[3]; mouse,~100%
same,% rem @ 30 min,[3]; mouse,79.3%
same,% rem @ 45 min,[3]; mouse,59.8%
same,half-life at 1 µM,[3]; mouse,0.95 h
same,microsomal CLint at 1 μM,[3]; mouse,24.3 µL/min/mg
same,% rem @ 5 min,[3]; rat,98.7%
same,% rem @ 15 min,[3]; rat,83.1%
same,% rem @ 30 min,[3]; rat,75.3%
same,% rem @ 45 min,[3]; rat,74.0%
same,half-life at 1 µM,[3]; rat,1.58 h
same,microsomal CLint at 1 μM,[3]; rat,14.6 µL/min/mg
same,% rem @ 5 min,[4],96.8%
same,% rem @ 15 min,[4],87.7%
same,% rem @ 30 min,[4],66.9%
same,% rem @ 45 min,[4],63.2%
same,half-life at 1 µM,"[4]; pH 7.4, with Furafylline 20 μM",1.03 h
same,microsomal CLint at 1 μM,"[4]; pH 7.4, with Furafylline 20 μM, read-out: mCLint",22.5 µL/min/mg
same,efflux ratio at 60 min,[5]; MDCK-MDR1,1.22
same,recovery at 60 min,"[5]; MDCK-MDR1, % recovery Apical concentration-Basal concentration",49.1%
same,recovery at 60 min,"[5]; MDCK-MDR1, % recovery Basal concentration-Apical concentration",~100%
same,Papp A→B at 60 min,[6],26 ×10⁻⁶ cm/s
same,"Papp A→B at 60 min, 5 µM",[6],26 ×10⁻⁶ cm/s
same,Papp B→A at 60 min,[6],31.6 ×10⁻⁶ cm/s
same,"efflux ratio at 60 min, 5 µM",[6],< 2
same,% rem @ 5 min,[7],81.9%
same,% rem @ 15 min,[7],81.5%
same,% rem @ 30 min,[7],61.8%
same,% rem @ 45 min,[7],52.9%

# — patent US20250206714A1, “COMPOSITIONS AND METHODS FOR TREATMENT OF INFLAMMATORY DISEASES” (Invea Therapeutics, Inc., priority 2022, published 2025)
